Assay results reported in the supplement of paper PMC10307832.

Assays:
Assay in all cases: relative viability (nuclei count vs DMSO), 5 days (fraction); higher = more cells survive
[1] = compound: C1=CC(=CC=C1NC(=S)NNC2=C(C=C(C=C2[N+](=O)[O-])C(F)(F)F)[N+](=O)[O-])F [Kobe2602] + Cc1cc(Nc2cc(N3CCN(C)CC3)nc(Sc3ccc(NC(=O)C4CC4)cc3)n2)n[nH]1 [Tozasertib] (partner 0.1 µM)
In short: (§1)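 Lung cancer cell lines in 1536-well plates were dosed by pin tool the day after seeding, either with one drug alone or with a fixed anchor-drug dose plus five library-drug doses (not always all listed) in √10 steps. After 5 days, cells were fixed and their nuclei stained in one step (final 0.05% Triton X-100, 1% formaldehyde, 1 ug/ml Hoechst), then counted on 4× images. Relative viability is the nuclei count in treated wells divided by that in vehicle wells. Values are medians of duplicate plates.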

[2] = compound: O[C@@H](COc1cccc2ncccc12)CN1CCN([C@@H]2c3ccccc3[C@@H]3[C@H](c4ccccc42)C3(F)F)CC1 [Zosuquidar] + CC(C)C[C@H](NC(=O)[C@H](Cc1ccccc1)NC(=O)c1cnccn1)B(O)O [Bortezomib] (partner 0.002 µM)
In short: as §1

[3] = compound: O[C@@H](COc1cccc2ncccc12)CN1CCN([C@@H]2c3ccccc3[C@@H]3[C@H](c4ccccc42)C3(F)F)CC1 [Zosuquidar] + CS(=O)(=O)N1CCN(Cc2cc3nc(-c4cccc5[nH]ncc45)nc(N4CCOCC4)c3s2)CC1 [Pictilisib] (partner 1 µM)
In short: as §1

[4] = compound: O[C@@H](COc1cccc2ncccc12)CN1CCN([C@@H]2c3ccccc3[C@@H]3[C@H](c4ccccc42)C3(F)F)CC1 [Zosuquidar] + O=C(c1cc(Cc2n[nH]c(=O)c3ccccc23)ccc1F)N1CCN(C(=O)C2CC2)CC1 [Olaparib] (partner 8 µM)
In short: as §1

Row | Cell Line | relative viability ([1]; first compound 0.2 µM) | relative viability ([1]; first compound 0.6325 µM) | relative viability ([1]; first compound 2 µM) | relative viability ([1]; first compound 6.325 µM) | relative viability ([1]; first compound 20 µM) | relative viability ([2]; first compound 0.01 µM) | relative viability ([2]; first compound 0.03162 µM) | relative viability ([2]; first compound 0.1 µM) | relative viability ([2]; first compound 0.3162 µM) | relative viability ([2]; first compound 1 µM) | relative viability ([3]; first compound 0.01 µM) | relative viability ([3]; first compound 0.03162 µM) | relative viability ([3]; first compound 0.1 µM) | relative viability ([3]; first compound 0.3162 µM) | relative viability ([3]; first compound 1 µM) | relative viability ([4]; first compound 0.01 µM) | relative viability ([4]; first compound 0.03162 µM) | relative viability ([4]; first compound 0.1 µM) | relative viability ([4]; first compound 0.3162 µM) | relative viability ([4]; first compound 1 µM)
1 | EMC-BAC-2 | 0.286 | 0.297 | 0.286 | 0.333 | 0.32 | 1.02 | 1.07 | 1.02 | 1.22 | 1.09 | 0.511 | 0.524 | 0.47 | 0.635 | 0.508 | 0.467 | 0.487 | 0.529 | 0.535 | 0.482
2 | LCLC-103H | 0.498 | 0.535 | 0.469 | 0.436 | 0.479 | 1.02 | 1.03 | 0.836 | 1.23 | 0.926 | 0.541 | 0.569 | 0.542 | 0.607 | 0.737 | 0.743 | 0.721 | 0.808 | 0.759 | 0.695
3 | NCI-H23 | 0.464 | 0.342 | 0.308 | 0.829 | 0.236 | 0.956 | 1.24 | 1.15 | 1.3 | 1.33 | 0.479 | 0.525 | 0.393 | 0.574 | 0.496 | 0.328 | – | 0.362 | 0.319 | 0.336
4 | NCI-H322M | 0.518 | 0.534 | 0.493 | 0.538 | 0.533 | 1.27 | 1.27 | 0.827 | 1.17 | 1.12 | 0.494 | 0.577 | 0.371 | 0.519 | 0.534 | 0.774 | 0.898 | 0.665 | 0.698 | 0.796
5 | NCI-H2126 | 0.856 | 0.821 | 0.812 | 0.733 | 0.591 | 1.12 | 1.04 | 1.01 | 1.19 | 1.09 | 0.479 | 0.505 | 0.404 | 0.494 | 0.539 | 0.909 | 0.868 | 0.849 | 0.922 | 0.917
6 | NCI-H647 | 0.213 | 0.315 | 0.181 | 0.192 | 0.347 | 1.01 | 0.882 | 1.27 | 1.1 | 0.996 | 0.493 | 0.316 | 0.463 | 0.4 | 0.466 | 0.564 | 0.519 | 0.559 | 0.674 | 0.566
7 | LU99A | 0.287 | 0.323 | 0.286 | 0.237 | 0.298 | 1.09 | 1.14 | 1.22 | 1.34 | 1.37 | 0.252 | 0.275 | 0.354 | 0.327 | 0.4 | 0.239 | 0.264 | 0.285 | 0.273 | 0.254
8 | NCI-H1666 | 0.644 | 0.61 | 0.571 | 0.604 | 0.544 | 1 | 0.905 | 0.714 | 1.15 | 0.798 | 0.458 | 0.491 | 0.52 | 0.517 | 0.274 | 0.75 | 0.795 | 0.73 | 0.815 | 0.787
9 | NCI-H596 | 0.763 | 0.763 | 0.813 | 0.798 | 0.746 | 0.985 | 1.09 | 0.718 | 1.02 | 1.01 | 0.439 | 0.432 | 0.36 | 0.401 | 0.414 | 0.651 | 0.607 | 0.67 | 0.696 | 0.666
